Consider four compounds from patent publication US9908884B2, “EGFR inhibitors and methods of treating disorders” (priority 2009, dated 2018).

As usually defined, the Cmax is the highest concentration seen after dosing.

The test system of data set [1] is H1975 (L858R/T790M) cells. The data set can be described thus: EGFR signaling immunoblot in H1975 cells. Format: cell-based. The following applies: 16 hours. The protocol: All cell lines were maintained in RPMI 1640 (Cellgro; Mediatech Inc., Herndon, Calif.) supplemented with 10% FBS 100 units/mL penicillin, 100 […], and 2 mM glutamine.
The supernatant was used for subsequent procedures. […] Antibody binding was detected using an enhanced chemiluminescence system (New England Nuclear Life Science Products Inc.).

Data set [2] addresses T790M EGFR (Homo sapiens, UniProt P00533, T790M). The data set can be described thus: Mass spectrometric analysis of T790M EGFR modification. The note with it: MS/MS of peptic peptide 791-798.
From the text: (A) Intact ESI mass spectra of the free and inhibitor bound. The raw m/z data are shown on the left and the transformed, mass only spectra shown on the right. The measured and theoretical molecular weights of the unmodified as well as modified version of each protein are indicated. In the transformed mass spectra, peaks corresponding to a phosphorylation are indicated. […] All the ions in these mass spectra have been converted to a single charge state.
For intact protein mass spectral analysis, the proteins T790M alone and with small molecules bound were injected onto a POROS 20 R2 protein trap and desalted with 0.05% trifluoroacetic acid (TFA) at a flow rate of 100 μL/min. The proteins were eluted into the mass spectrometer using a linear 15%-75% (v/v) acetonitrile gradient over 4 min at 50 μL/min using a Shimadzu HPLC system (LC-10ADvp). Intact protein analyses were performed on an LCT-Premier instrument (Waters Corp., Milford, Mass., USA) equipped with a standard electrospray source. The capillary voltage was 3.2 kV and the cone voltage of 35 V. Nitrogen was used as desolvation gas. A source temperature of 175° C. and a desolvation temperature of 80° C. were applied. The instrument was calibrated by infusing a solution of 500 fmol/μL myoglobin and the mass accuracy was less than 10 ppm. […]
For data set [3] the following is noted: Phase I trial; cited from earlier work.
Data set [4] concerns lung cancer patients. The note with it: all lung cancer patients, not selected for EGFR mutation; cited from earlier work.

For the compound `C=CC(=O)Nc1cccc(Oc2nc(Nc3ccc(N4CCN(C)CC4)cc3)ncc2Cl)c1` [WZ3146, N-(3-(5-chloro-2-(4-(4-methylpiperazin-1-yl)phenylamino)pyrimidin-4-yloxy)phenyl)acrylamide], in data set [1], the “inhibition of EGFR, Akt and ERK 1/2 phosphorylation” value is “significantly lower concentrations compared with CL-387,785”. Also, in data set [2], the “site of covalent attachment” value is “Cys797 was the site of covalent attachment”.

As to `CCOc1cc2ncc(C#N)c(Nc3ccc(OCc4ccccn4)c(Cl)c3)c2cc1NC(=O)/C=C/CN(C)C` [HKI-272], the maximum concentration (Cmax) in data set [3] was approximately 200 nM.

With `C#Cc1cccc(Nc2ncnc3cc(OCCOC)c(OCCOC)cc23)c1` [erlotinib], the “median time to tumor progression” value in data set [4] is given as “approximately 2 months”.

As to `COc1cc2ncnc(Nc3ccc(F)c(Cl)c3)c2cc1OCCCN1CCOCC1` [gefitinib], in data set [4], the “median time to tumor progression” value is reported as “approximately 2 months”.
